Measured values as given in PubChem BioAssay AID588643 (The Scripps Research Institute Molecular Screening Center, 2011).
Activity calls are given as the source filed them.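 The calls were made as follows: active = phospho-ERK protein band moved at least 30% up or down from the DMSO-only control band; inactive = the rest.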

Columns and labels:
[1] = tested on: HCT116 phospho-ERK1/2 western blot, 24 h; experiment: p-MAPK1 abundance shift in treated cells – cell-based, HCT116 colorectal carcinoma, chemiluminescent western blot, counter-screen for KLF5 inhibitor project, late-stage follow-up (AID 588643); conditions: measured here: phospho-ERK fold change vs DMSO; at 10 µM; stronger effect = lower value
[2] = molecular target: Mitogen-activated protein kinase 1 (Homo sapiens) (UniProt P28482); experiment: as above; conditions: HCT116 phospho-ERK1/2 western blot, 24 h; at 10 µM; stronger effect = higher value

- inhibition [2]: -20% (inactive)
SMILES: CN(C(=O)COC(=O)/C=C/c1cccc([N+](=O)[O-])c1)C1CCS(=O)(=O)C1 (configuration not stated)
- fold change [1]: 1.2
